This note sets out measurements from patent publication US12552732B2, “Cyclopropanated sandalwood type compounds” (Symrise AG, priority 2020, dated 2026).

The nature of data set [1]: Chemical stability in citric acid-based cleaner pH 2 (SPME GC-MS). The data set is classed as physicochemical. The following applies: for acid-stability compared with Javanol: 0.3% in citric acid-based cleaner pH 2, 14 days, 6, 22, 40 and 50 °C, versus fresh sample. The method, then:
In order to analyse the stability of the inventive compounds, different samples each containing 0.3% of either compound 3a, compound 3b or Javanol® (Givaudan), respectively, in a citric acid-based cleaner having a pH of 2 were analysed, i.e., the stability test was carried out using a representative acidic cleaner (pH=2) in which the corresponding fragrance compounds were incorporated in an amount of 0.3% relative to the acidic cleaner.
The stability was analysed via solid-phase microextraction (SPME) and coupled gas chromatography-mass spectrometry (GC-MS) by using a combination of polydimethylsiloxane and divinylbenzene as SPME fibre coating (PDMS/DVB fibre) and a polydimethylsiloxane-based DB-1 column for gas chromatography (100% polydimethylsiloxane) for each sample containing one of the fragrance compounds as indicated above. The stability was tested for various samples after 14 days of acidic treatment at different storage temperatures (6° C., 22° C., 40° C. and 50° C.) in comparison to a freshly prepared sample as reference (see FIGURE).

Data set [2] is described as follows: Odour detection threshold (ODT), olfactometer TO8, expert panel, DIN EN 13725. The conditions noted are these: for ODT (odour detection threshold): olfactometer TO8, panel of at least four experts. The source says:
The odour detection threshold is defined as the lowest concentration of a certain odorous compound (gaseous and sensorially active substance) which is perceivable and thus which can be distinguished with certainty from a blank reference under standard conditions. Generally, lower ODT values are preferred as a lower amount of the corresponding fragrance compound is required in order to a achieve an intense odour impressions and thus overall lower amounts can be used for perfuming. However, as the threshold depends on various factors such as concentration, solubility, partition coefficient between air and the olfactory active substance, vapor pressure and the like, predictions referring to the ODT of a substance, i.e. a fragrance material are difficult to make. The ODT was measured using an olfactometer TO8 and a panel of at least four experts according to DIN standard EN 13725.

`CCC(CO)C1CC1C1CC2CC2(C)C1(C)C` (stereo not shown) [Compound 3a, 2-[2-(1,2,2-trimethyl-3-bicyclo[3.1.0]hexanyl)cyclopropyl]butan-1-ol]: the “acid-stability compared with Javanol” value in data set [1] is given as “better acid-stability over the whole temperature range”. For the same molecule, the “acid-stability at 22 °C” value in data set [1] (0.3% in citric acid-based cleaner pH 2, 14 days, 22 °C) was “Best stabilities”. Also, the “ODT (odour detection threshold)” value in data set [2] is recorded as 0.000244 ppm (v/v).

`CC(CO)C1CC1C1CC2CC2(C)C1(C)C` (stereo not shown) [Compound 3b, 2-[2-(1,2,2-trimethyl-3-bicyclo[3.1.0]hexanyl)cyclo-propyl]propan-1-ol]: the “acid-stability compared with Javanol” value in data set [1] is listed as “better acid-stability over the whole temperature range”. In addition, in data set [2] (ODT compared with Javanol (Givaudan)), the “factor by which threshold value is lower than Javanol” value is on record as “about 6.5”. For the same molecule, the “ODT (odour detection threshold)” value in data set [2] is 0.0000165 ppm (v/v).

As to `CC1(CO)CC1CC1CC2CC2(C)C1(C)C` (stereo not shown) [Javanol®, [1-methyl-2-[(1,2,2-trimethyl-3-bicyclo[3.1.0]hexanyl)methyl]cyclo-propyl]methanol, reference compound], the “decomposition at 50 °C” value in data set [1] (0.3% in citric acid-based cleaner pH 2, 14 days, 50 °C) was “fully decomposes”. Moreover, in data set [1] (0.3% in citric acid-based cleaner pH 2, 14 days, moderate temperatures), the “decomposition at moderate temperatures” value is listed as “seems to decompose quickly even at moderate temperatures”. Further, the “chemical stability under acidic conditions” value in data set [1] (acidic conditions, general statement) was “not chemically stable under acidic conditions”. Also, in data set [2], the “ODT (odour detection threshold)” value is 0.000104 ppm (v/v).
